Test results taken from paper PMC12396409, “Screening and hit evaluation of a microbial metabolite library against the pathogenic Plasmodium falciparum and Toxoplasma gondii parasites” (International Journal for Parasitology: Drugs and Drug …, 2025).
Read-outs that look alike come from different tables or passages of the source.

Key:
[1] = tested on: P. falciparum 3D7 parasites; experiment: P. falciparum growth inhibition assay, 2-cycle (120 h treatment), delayed-death screen and dose-response; type: cell-based, Plasmodium falciparum; conditions: for activity at 2 µg/mL: Plasmodium falciparum
[2] = tested on: P. falciparum 3D7 parasites; experiment: P. falciparum growth inhibition assay, 1-cycle (72 h treatment), SYBR DNA staining (library screen at 2 μg/mL and dose-response); type: cell-based, Plasmodium falciparum; conditions: for activity at 2 µg/mL: Plasmodium falciparum
[3] = tested on: T. gondii RH strain (RH-Tub-eYFP) tachyzoites; experiment: microbe, parasite or virus in culture; type: cell-based, Toxoplasma gondii; conditions: 72 h; for percent parasite growth at 2 µg/mL: Toxoplasma gondii
[4] = P. falciparum, 120 h, screen at 2 μg/mL, replicate 1
[5] = P. falciparum, 120 h, screen at 2 μg/mL, replicate 2
[6] = P. falciparum, 72 h, screen at 2 μg/mL, replicate 1
[7] = P. falciparum, 72 h, screen at 2 μg/mL, replicate 2
[8] = T. gondii, screen at 2 μg/mL, replicate 1
[9] = T. gondii, screen at 2 μg/mL, replicate 2
[10] = T. gondii, parasite screen 2 μg/mL, % growth, replicate 1, read-out: Tg_72h_%Growth_Rep1
[11] = T. gondii, parasite screen 2 μg/mL, % growth, replicate 2, read-out: Tg_72h_%Growth_Rep2

Question: With `COc1c(-c2ccccc2)c2ccccc2[nH]c1=O` [BIA-M1149] as the compound, how does the Pf_120h_%Growth_Rep1 ([1]; P. falciparum 3D7, 120 h, parasite screen at 2 μg/mL, % growth, replicate 1) read?
Answer: 106.21%

Question: What about the Pf_120h_%Growth_Rep2 ([1]; P. falciparum 3D7, 120 h, parasite screen at 2 μg/mL, % growth, replicate 2) of the same compound?
Answer: 123.66%

Question: And the Pf_72h_%Growth_Rep1 ([2]; P. falciparum 3D7, 72 h, parasite screen at 2 μg/mL, % growth, replicate 1)?
Answer: 89.32%

Question: And the Pf_72h_%Growth_Rep2 ([2]; P. falciparum 3D7, 72 h, parasite screen at 2 μg/mL, % growth, replicate 2)?
Answer: 119.11%

Question: What about the Tg_72h_%Growth_Rep1 ([3]; T. gondii, parasite screen at 2 μg/mL, % growth, replicate 1) of the same compound?
Answer: 136.04%

Question: And the Tg_72h_%Growth_Rep2 ([3]; T. gondii, parasite screen at 2 μg/mL, % growth, replicate 2)?
Answer: 92.92%

Question: Which activity at 2 µg/mL ([1]; 3D7, library screen at 2 μg/mL, 120 h, % growth, replicate 1, read-out: Pf_120h_%Growth_Rep1) does the source give for `CO[C@H]1C[C@@H]2CC[C@@H](C)[C@@](O)(O2)C(=O)C(=O)N2CCCC[C@H]2C(=O)O[C@H]([C@H](C)C[C@@H]2CC[C@@H](OCCO)[C@H](OC)C2)CC(=O)[C@H](C)/C=C(\C)[C@@H](O)[C@@H](OC)C(=O)[C@H](C)C[C@H](C)/C=C/C=C/C=C/1C` [Everolimus] here?
Answer: 72.3%

Question: And the activity at 2 µg/mL ([1]; 3D7, library screen at 2 μg/mL, 120 h, % growth, replicate 2, read-out: Pf_120h_%Growth_Rep2)?
Answer: 69.3%

Question: What about the activity at 2 µg/mL ([2]; 3D7, library screen at 2 μg/mL, 72 h, % growth, replicate 1, read-out: Pf_72h_%Growth_Rep1) of the same compound?
Answer: 71.5%

Question: And the activity at 2 µg/mL ([2]; 3D7, library screen at 2 μg/mL, 72 h, % growth, replicate 2, read-out: Pf_72h_%Growth_Rep2)?
Answer: 67.8%

Question: And the percent parasite growth at 2 µg/mL ([3]; library screen at 2 μg/mL, % growth, replicate 1, read-out: Tg_72h_%Growth_Rep1)?
Answer: 40.6%

Question: And the percent parasite growth at 2 µg/mL ([3]; library screen at 2 μg/mL, % growth, replicate 2, read-out: Tg_72h_%Growth_Rep2)?
Answer: 79.1%

Question: How did the Pf_120h_%Growth_Rep1 [1, 4] turn out when `CC(/C=C/C(=O)NO)=C\[C@@H](C)C(=O)c1ccc(N(C)C)cc1` [trichostatin A, reference compound] was run?
Answer: 8.88%

Question: And the Pf_120h_%Growth_Rep2 [1, 5]?
Answer: 11.39%

Question: And the “activity in the screen against P. falciparum” value ([2]; 2 μg/mL, 72 h, active = ≥80 % growth inhibition)?
Answer: active

Question: And the Pf_72h_%Growth_Rep1 [2, 6]?
Answer: 1.39%

Question: What about the Pf_72h_%Growth_Rep2 [2, 7] of the same compound?
Answer: -9.74%

Question: And the Tg_72h_%Growth_Rep1 [3, 8]?
Answer: 0.84%

Question: And the Tg_72h_%Growth_Rep2 [3, 9]?
Answer: 0.67%

Question: Which results are given for `C/C=C(/C)c1cc(O)c(C)c2c1Oc1c(C)c(O)cc(/C(C)=C\C)c1C(=O)O2` [Folipastatin]?
Answer: Pf_120h_%Growth_Rep1 ([1]; library screen at 2 μg/mL, 120 h, % growth, replicate 1): 81.33%; Pf_120h_%Growth_Rep2 ([1]; library screen at 2 μg/mL, 120 h, % growth, replicate 2): 105.49%; Pf_72h_%Growth_Rep1 ([2]; library screen at 2 μg/mL, 72 h, % growth, replicate 1): 84.22%; Pf_72h_%Growth_Rep2 ([2]; library screen at 2 μg/mL, 72 h, % growth, replicate 2): 87.89%; Tg_72h_%Growth_Rep1 ([3]; library screen at 2 μg/mL, % growth, replicate 1): 114.14%; Tg_72h_%Growth_Rep2 ([3]; library screen at 2 μg/mL, % growth, replicate 2): 93.99%

Question: `CC(=O)c1c(O)c(C(C)=O)c(O)c(C(C)=O)c1O` [Triacetylphloroglucinol] was tested. Which Pf_120h_%Growth_Rep1 [1, 4] did it give?
Answer: 80.17%

Question: And the Pf_120h_%Growth_Rep2 [1, 5]?
Answer: 112.26%

Question: What about the Pf_72h_%Growth_Rep1 [2, 6] of the same compound?
Answer: 83.84%

Question: What about the Pf_72h_%Growth_Rep2 [2, 7] of the same compound?
Answer: 50.48%

Question: What about the Tg_72h_%Growth_Rep1 [3, 8] of the same compound?
Answer: 132.07%

Question: What about the Tg_72h_%Growth_Rep2 [3, 9] of the same compound?
Answer: 93.42%

Question: `COc1cc(C)c2c(c1C=O)Oc1c(c(C)c(O)c3c1C(O)OC3=O)OC2=O` (stereo not shown) [Stictic acid] was tested. Which activity at 2 µg/mL ([1]; 3D7, P. falciparum, 120 h, parasite screen 2 μg/mL, % growth, replicate 1, read-out: Pf_120h_%Growth_Rep1) did it give?
Answer: 88.2%

Question: And the activity at 2 µg/mL ([1]; 3D7, P. falciparum, 120 h, parasite screen 2 μg/mL, % growth, replicate 2, read-out: Pf_120h_%Growth_Rep2)?
Answer: 87.2%

Question: What about the activity at 2 µg/mL ([2]; 3D7, P. falciparum, 72 h, parasite screen 2 μg/mL, % growth, replicate 1, read-out: Pf_72h_%Growth_Rep1) of the same compound?
Answer: 81.8%

Question: What about the activity at 2 µg/mL ([2]; 3D7, P. falciparum, 72 h, parasite screen 2 μg/mL, % growth, replicate 2, read-out: Pf_72h_%Growth_Rep2) of the same compound?
Answer: 80.1%

Question: And the percent parasite growth at 2 µg/mL [3, 10]?
Answer: 115%

Question: What about the percent parasite growth at 2 µg/mL [3, 11] of the same compound?
Answer: 87%

Question: Which activity at 2 µg/mL ([1]; 3D7, P. falciparum, 120 h, screen at 2 μg/mL, replicate 1, read-out: Pf_120h_%Growth_Rep1) does the source give for `CN(C)[C@@H]1C(O)=C(C(N)=O)C(=O)[C@@]2(O)C(O)=C3C(=O)c4c(O)cccc4[C@@](C)(O)[C@H]3C[C@@H]12` [Tetracycline] here?
Answer: 164%

Question: What about the activity at 2 µg/mL ([1]; 3D7, P. falciparum, 120 h, screen at 2 μg/mL, replicate 2, read-out: Pf_120h_%Growth_Rep2) of the same compound?
Answer: 73.9%

Question: What about the activity at 2 µg/mL ([2]; 3D7, P. falciparum, 72 h, screen at 2 μg/mL, replicate 1, read-out: Pf_72h_%Growth_Rep1) of the same compound?
Answer: 62.1%

Question: What about the activity at 2 µg/mL ([2]; 3D7, P. falciparum, 72 h, screen at 2 μg/mL, replicate 2, read-out: Pf_72h_%Growth_Rep2) of the same compound?
Answer: 83.3%

Question: And the percent parasite growth at 2 µg/mL ([3]; read-out: Tg_72h_%Growth_Rep1)?
Answer: 103%

Question: What about the percent parasite growth at 2 µg/mL ([3]; read-out: Tg_72h_%Growth_Rep2) of the same compound?
Answer: 101%

Question: With `O=C1C=C2C=C[C@@H]3C[C@@]2(O1)[C@H]1CCCCN31` [Securinine] as the compound, how does the activity at 2 µg/mL ([1]; 3D7, 120 h, P. falciparum, 120 h, parasite screen 2 μg/mL, % growth, replicate 1, read-out: Pf_120h_%Growth_Rep1) read?
Answer: 14.2%

Question: What about the activity at 2 µg/mL ([1]; 3D7, 120 h, P. falciparum, 120 h, parasite screen 2 μg/mL, % growth, replicate 2, read-out: Pf_120h_%Growth_Rep2) of the same compound?
Answer: 10.7%

Question: What about the activity at 2 µg/mL ([2]; 3D7, 72 h, P. falciparum, 72 h, parasite screen 2 μg/mL, % growth, replicate 1, read-out: Pf_72h_%Growth_Rep1) of the same compound?
Answer: 19.3%

Question: What about the activity at 2 µg/mL ([2]; 3D7, 72 h, P. falciparum, 72 h, parasite screen 2 μg/mL, % growth, replicate 2, read-out: Pf_72h_%Growth_Rep2) of the same compound?
Answer: 10.7%

Question: What about the percent parasite growth at 2 µg/mL [3, 10] of the same compound?
Answer: 46.1%

Question: What about the percent parasite growth at 2 µg/mL [3, 11] of the same compound?
Answer: 60.2%
